{"source": "ChEMBL document CHEMBL4616712", "about": "“Design and Synthesis of 1,2-Deoxy-pyranose Derivatives of Spliceostatin A toward Prostate Cancer Treatment” (ACS Med Chem Lett, 2020)", "key": {"[1]": {"tested_on": "LNCaP", "test": "Suppression of AR-V7 expression in human LNCAP cells expressing GFP", "type": "functional, cell-based"}, "[2]": {"tested_on": "CWR22R", "test": "Suppression of AR-V7 expression in human CWR22Rv1 cells expressing GFP measured after 3 days by FACS assay", "type": "functional, cell-based", "details": "22Rv1, 72 h"}, "[3]": {"test": "Toxicity in BALB/c mouse assessed as mouse death at 280 nM/body, iv measured after 24 hrs", "type": "organism-based", "details": "in vivo, 0.28 µM"}, "[4]": {"test": "Toxicity in BALB/c mouse assessed as effect on weight loss at 280 nM/body, iv administered on day 2 and day 4", "type": "organism-based", "details": "in vivo, 0.28 µM"}, "[5]": {"test": "Toxicity in BALB/c mouse assessed as mouse death at 280 nM/body, iv administered on day 2 and day 4", "type": "organism-based", "details": "in vivo, 0.28 µM"}}, "note": "pIC50: −log10 of the molar value.", "data": [{"compound": "CC(=O)O[C@@H](C)/C=C\\C(=O)N[C@@H]1C[C@H](C)[C@H](C/C=C(C)/C=C/[C@H]2O[C@H](c3ccccc3)C[C@@]3(CO3)[C@@H]2O)O[C@@H]1C", "values": [{"measurement": "pIC50", "setting": "[1]", "result": 6.88}]}, {"compound": "CC(=O)O[C@@H](C)/C=C\\C(=O)N[C@@H]1C[C@H](C)[C@H](C/C=C(C)/C=C/[C@H]2OCC[C@]3(O[C@@H]3C)[C@@H]2O)O[C@@H]1C", "values": [{"measurement": "pIC50", "setting": "[2]", "result": 6.69}]}, {"compound": "CO[C@]1(C)C[C@@]2(CO2)[C@H](O)[C@@H](/C=C/C(C)=C/C[C@@H]2O[C@H](C)[C@H](NC(=O)/C=C\\[C@H](C)OC(C)=O)C[C@@H]2C)O1", "values": [{"measurement": "pIC50", "setting": "[2]", "result": 9.22}, {"measurement": "Activity", "setting": "[3]", "result": "Toxic"}]}, {"compound": "CC(=O)O[C@@H](C)/C=C\\C(=O)N[C@@H]1C[C@H](C)[C@H](C/C=C(C)/C=C/[C@H]2OCC[C@@]3(CO3)[C@@H]2O)O[C@@H]1C", "values": [{"measurement": "pIC50", "setting": "[2]", "result": 8.48}, {"measurement": "Activity", "setting": "[4]", "result": "Non-Toxic"}, {"measurement": "Activity", "setting": "[5]", "result": "Non-Toxic"}]}, {"compound": "CC(=O)O[C@@H](C)/C=C\\C(=O)N[C@@H]1C[C@H](C)[C@H](C/C=C(C)/C=C/[C@H]2OCC[C@]3(O[C@H]3C)[C@@H]2O)O[C@@H]1C", "values": [{"measurement": "pIC50", "setting": "[2]", "result": 6.73}]}]}
